Data set [1] can be described thus: Displacement of [3H]-ifenprodil from ifenprodil binding site of NMDA receptor in porcine hippocampus synaptosomal fractions after 2 hrs. It counts as tissue-based, Sus scrofa.
Data set [2] in a line: Displacement of [3H]MK-801 from high affinity site of NMDA-NR2B receptor in porcine hippocampus synaptosomal fractions after 15 mins. The data set is classed as tissue-based, Sus scrofa.
Data set [3] in a line: Displacement of [3H]MK-801 from low affinity site of NMDA receptor in porcine hippocampus synaptosomal fractions after 15 mins. It counts as tissue-based, Sus scrofa.
For the next data set, the target named is hERG (KCNH2) (Homo sapiens, UniProt Q12809). Description: Residual current of human ERG expressed in CHO-K1 cells at 100 uM by patch clamp electrophysiological assay relative to control. To be noted: CHO-K1 cells expressing human ERG.
Chain of hERG (KCNH2) (Q12809 whole entry): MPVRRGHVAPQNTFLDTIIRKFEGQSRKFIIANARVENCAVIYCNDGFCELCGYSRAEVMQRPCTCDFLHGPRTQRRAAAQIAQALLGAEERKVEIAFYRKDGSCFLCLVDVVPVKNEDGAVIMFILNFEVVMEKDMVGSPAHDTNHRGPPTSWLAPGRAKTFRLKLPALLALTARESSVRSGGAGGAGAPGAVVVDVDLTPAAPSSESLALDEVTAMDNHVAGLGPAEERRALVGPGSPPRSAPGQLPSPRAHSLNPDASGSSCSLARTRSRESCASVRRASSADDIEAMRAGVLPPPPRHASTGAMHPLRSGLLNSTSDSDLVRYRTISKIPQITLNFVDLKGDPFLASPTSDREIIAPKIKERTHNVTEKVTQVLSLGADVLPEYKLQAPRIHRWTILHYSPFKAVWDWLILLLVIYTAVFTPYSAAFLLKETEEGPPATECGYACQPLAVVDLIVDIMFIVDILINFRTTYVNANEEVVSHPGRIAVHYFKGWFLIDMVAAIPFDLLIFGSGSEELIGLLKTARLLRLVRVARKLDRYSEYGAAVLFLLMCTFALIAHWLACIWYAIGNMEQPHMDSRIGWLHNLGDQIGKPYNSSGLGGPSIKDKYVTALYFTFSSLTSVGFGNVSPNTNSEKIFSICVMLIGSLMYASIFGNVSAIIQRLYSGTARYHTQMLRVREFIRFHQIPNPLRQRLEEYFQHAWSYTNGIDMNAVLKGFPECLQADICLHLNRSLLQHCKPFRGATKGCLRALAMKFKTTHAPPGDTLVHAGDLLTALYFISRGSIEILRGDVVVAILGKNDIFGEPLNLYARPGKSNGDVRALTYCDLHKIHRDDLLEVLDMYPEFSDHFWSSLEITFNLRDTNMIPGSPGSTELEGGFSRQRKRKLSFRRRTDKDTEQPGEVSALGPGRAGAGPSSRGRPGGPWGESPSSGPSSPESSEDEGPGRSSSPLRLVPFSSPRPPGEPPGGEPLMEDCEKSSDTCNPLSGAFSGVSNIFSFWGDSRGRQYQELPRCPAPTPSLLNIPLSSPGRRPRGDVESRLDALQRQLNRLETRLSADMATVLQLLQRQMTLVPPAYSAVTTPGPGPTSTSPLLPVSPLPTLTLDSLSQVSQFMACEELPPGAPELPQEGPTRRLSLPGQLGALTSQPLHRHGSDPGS
A short description of data set [4]: Displacement of [3H]MK-801 from NMDA-NR2B receptor in porcine hippocampus synaptosomal fractions under nonequilibrium conditions after 15 mins. The data set is classed as tissue-based, Sus scrofa.
The species named for data set [5] is Sus scrofa. Description: Displacement of [3H]-ifenprodil from ifenprodil binding site of NMDA receptor in porcine hippocampus synaptosomal fractions at 100 uM after 2 hrs relative to control. It counts as tissue-based.
For data set [6], the species on record is Sus scrofa. Description: Displacement of [3H]MK-801 from NMDA-NR2B receptor in porcine hippocampus synaptosomal fractions at 100 uM after 15 mins relative to control. The data set is classed as tissue-based.
The nature of data set [7]: Displacement of [3H]-ifenprodil from ifenprodil binding site of NMDA receptor low affinity site in porcine hippocampus synaptosomal fractions after 2 hrs. It counts as tissue-based, Sus scrofa.

pIC50: −log10 of the molar value.

As for `Cc1ccc([C@@H](O)C[C@H]2c3ccccc3CN2C)cc1`, the pIC50 is 6.37 in data set [1], 6.68 in data set [2] and 4.70 in data set [3]. The compound also displayed a residual current at 100 µM on hERG (KCNH2) of 2.6%.
For the compound `Cc1ccc([C@@H](O)C[C@@H]2c3ccccc3CN2C)cc1`, the negative logarithm of the IC50 (pIC50) in data set [1] was 5.03; in data set [4], 4.64.
Consider `CN1Cc2ccccc2[C@H]1C[C@H](O)c1ccc([N+](=O)[O-])cc1`, for which the pIC50 is 4.38 in data set [1] and 4.37 in data set [4].
For `CN1Cc2ccccc2[C@@H]1C[C@@H](O)c1ccc([N+](=O)[O-])cc1`, the Activity in the data set listed under Sus scrofa [5] was 54%. For the same compound, the pIC50 in data set [4] was 4.41.
For `CN1Cc2ccccc2[C@@H]1C[C@H](O)c1ccc(Cl)cc1`, the values for the pIC50 in data set [1], in data set [2] and in data set [3] were 6.57, 6.30 and 4.17, respectively. In addition, on hERG (KCNH2), the residual current at 100 µM amounted to 1.6%.
As for `Cc1ccc([C@H](O)C[C@H]2c3ccccc3CN2C)cc1`, in the data set listed under Sus scrofa [5], the Activity amounted to 65%. Further, the pIC50 in data set [4] was 4.55.
In the case of `CN1Cc2ccccc2[C@@H]1C[C@H](O)c1ccc([N+](=O)[O-])cc1`, the negative logarithm of the IC50 (pIC50) is 5.12 in data set [1] and 4.37 in data set [4].
For `CN1Cc2ccccc2[C@H]1C[C@H](O)c1ccc(Cl)cc1`, in that order: 4.68 and 4.33.
For `CN1Cc2ccccc2[C@@H]1C[C@@H](O)c1ccc(Cl)cc1`, the Activity in the data set filed under Sus scrofa [5] worked out at 77%. This compound also showed a negative-log IC50 (pIC50) in data set [4] of 4.59.
`CN1Cc2ccccc2[C@H]1C[C@@H](O)c1ccc([N+](=O)[O-])cc1`: the pIC50 in data set [1] is 4.28. For the same compound, in the data set listed under Sus scrofa [6], the Activity was 82%.
For `CN1Cc2ccccc2[C@H]1C[C@@H](O)c1ccc(Cl)cc1`, in that order: 4.96 and 78%.
For the compound `COc1cc2c(cc1OC)[C@H](C[C@H](O)c1ccc(Cl)cc1)N(C)CC2`, the pIC50 was 4.65 in data set [7], 6.99 in data set [2] and 4.63 in data set [3].
In the case of `Cc1ccc([C@H](O)C[C@@H]2c3ccccc3CN2C)cc1`, the pIC50 is 4.46 in data set [1] and 4.51 in data set [4].

The values are drawn from ChEMBL document CHEMBL1833813, “Synthesis of a series of γ-amino alcohols comprising an N-methyl isoindoline moiety and their evaluation as NMDA receptor antagonists” (Bioorg Med Chem Lett, 2011).
